Reference: US9168286B2, “Methods and compositions for use in treatment of patients with autoantibody positive disease” (Human Genome Sciences, Inc., priority 2005, dated 2015)

Assays:
subjects with SLE [1] = assay: Phase 2 clinical trial of belimumab in SLE with extension and continuation trial: biologic markers (B cells, autoantibodies, Ig isotypes, C3/C4); type: in vivo, human; parameters: median percent change in CD20+ B cells (reduction) / median percent change in plasmacytoid B cells (CD20+/CD138+) (reduction) / median percent change in activated B cells (CD20+/CD69+) (reduction) / percent of subjects with significant anti-dsDNA reduction / IgE reduction: concentration or dose not given beside the values; conditions: for IgE reduction: subjects with elevated IgE (>114 KU/L) at baseline
Procedure: Of the patients who completed 52 weeks of treatment in the randomized, double-blind, placebo-controlled Phase 2 trial (see example 1), 96% (351/364) elected to enter the 24-week extension phase of the trial, and 92% (321/351) of those who entered completed it.
Serum autoantibodies, Ig isotypes and complement (C3, C4) were measured at 1-3 month intervals. In addition, the population with baseline serologic activity (ANA ≧1:80 or anti-dsDNA Ab ≧30IU; 72% of the original cohort herein called seropositive patients or seropositive subjects) was evaluated for SS, physician global assessment (PGA 0-3 units), BILAG, […] Functional Index (SFI) and autoantibody status at 1-3 month intervals.

subjects with RA [2] = assay: Phase 2 clinical trial of belimumab in rheumatoid arthritis: ACR20 response; type: in vivo, human
Text: (§1) ACR20 response increased to approximately 40% at Week 48.

subjects with RA [3] = assay: Phase 2 clinical trial of belimumab in rheumatoid arthritis: safety; type: in vivo, human
Text: as §1

subjects with RA [4] = assay: Phase 2 clinical trial of belimumab in rheumatoid arthritis: biomarkers; type: in vivo, human
Text: as §1

subjects with SLE [5] = conditions: human, in vivo
Procedure: (§2) 449 subjects with SLE by ACR criteria (Tan et al., Arthritis Rheum. 25:1271-7, (1982); and Hochberg et al., Arthritis Rheum. 40:1725, (1997)), with a history of measurable autoantibodies and SELENA SLEDAI score ≧4 at screening were dosed.
(§3) Subjects who completed the 52-week treatment period were given the option to continue the study for a 24-week extension period. […] B-cells were analyzed every 1-2 months by 4-color FACS (CD19, CD20, CD27, CD69, CD38, CD138 and CD45). Serum autoantibody, including anti-dsDNA Ab, Ig isotypes, total protein, and albumin levels were obtained at the same visits. The likelihood ratio chi-squared, Wilcoxon test or t-test was used to analyze the changes in the biological markers.

subjects with SLE [6] = assay: Phase 2 clinical trial of belimumab in SLE: safety
Procedure: as §2, §3

[7] = each measurement during weeks 8-52, p<0.01
[8] = week 52, all treatment groups combined, p<0.002
[9] = week 76, all treatment groups combined
[10] = continued treatment in the extension period

belimumab: an antibody that neutralizes Neutrokine-alpha protein
subjects with elevated Ig isotype levels at baseline returned to normal Ig isotype levels (subjects with SLE [1]; 52/128, p=0.0014, control 16% (7/45)): 41% | decrease of anti-dsDNA levels (subjects with SLE [1]; anti-dsDNA+ at baseline, weeks 52-128, placebo week 52=9%): 29-44% | serum IgG, IgA, IgE and IgM levels, median percent change from baseline (subjects with SLE [1]; as early as week 8, p<0.0001 vs placebo): Significant belimumab-induced reductions | time at which maximal median reductions of each Ig isotype were reached (subjects with SLE [1]; belimumab-treated subjects): 8-24 weeks | percent of subjects with significant anti-dsDNA reduction (subjects with SLE [1]; clinical responders, week 52): 35% | percent of subjects with significant anti-dsDNA reduction (subjects with SLE [1]; clinical responders, week 128): 56% | CD19+ B cell counts, median percent change from baseline (subjects with SLE [1]; [7]): Significant reductions | activated B cell (CD20+/CD69+) counts, median percent change from baseline (subjects with SLE [1]; [7]): Significant reductions | naïve B cell (CD20+/CD27−) counts, median percent change from baseline (subjects with SLE [1]; [7]): Significant reductions | plasmacytoid B cell (CD20+/CD138+) counts, median percent change from baseline (subjects with SLE [1]; each measurement during weeks 16-52, p<0.01): Significant reductions | increase of C3 (subjects with SLE [1]; low baseline C3 (n=135), week 52, placebo −1%): 6% | increase of C3 (subjects with SLE [1]; low baseline C3, week 76): 10% | increase of C3 (subjects with SLE [1]; low baseline C3, week 96): 15% | increase of C3 (subjects with SLE [1]; low baseline C3, week 128): 18% | increase of C4 (subjects with SLE [1]; low baseline C4 (n=180), week 52, p=0.0126, placebo 14%): 33% | increase of C4 (subjects with SLE [1]; low baseline C4, week 76): 46% | increase of C4 (subjects with SLE [1]; low baseline C4, week 96): 57% | increase of C4 (subjects with SLE [1]; low baseline C4, week 128): 67% | Anti-Sm reverted from positive at baseline to negative (subjects with SLE [1]; n=85, weeks 52-128, placebo week 52=5%): 26-36% | subjects with hypergammaglobulinemia (>1618 mg/dL) at baseline normalized (subjects with SLE [1]; n=125, week 52, placebo week 52=17%): 45% | subjects with hypergammaglobulinemia (>1618 mg/dL) at baseline normalized (subjects with SLE [1]; n=125, week 128): 57% | RNP reverted from positive at baseline to negative (subjects with SLE [1]; n=205, weeks 52-128, placebo week 52=2%): 9-27% | percent of subjects with significant anti-dsDNA reduction (subjects with SLE [1]; non-responders, week 52): 19% | percent of subjects with significant anti-dsDNA reduction (subjects with SLE [1]; non-responders, week 128): 32% | C4 complement levels, median percent change from baseline (subjects with SLE [1]; patients with low C4 at baseline, each measurement during weeks 4-52, p≦0.01): significant increase | anti-dsDNA titer, median percent change from baseline (subjects with SLE [1]; subjects with anti-dsDNA ≧30 IU/ml at entry, as early as week 4, through week 52, vs placebo): significant reduction | IgE reduction (subjects with SLE [1]; week 52): 44% | IgE reduction (subjects with SLE [1]; week 128): 57% | median percent IgG reduction (subjects with SLE [1]; subjects with elevated IgG at baseline, weeks 52-128): 14-18% | median percent IgG reduction (subjects with SLE [1]; subjects with normal IgG at baseline, weeks 52-128): 7-8% | cell counts of CD19+, naïve, activated and plasmacytoid B cells, median percent change from baseline (subjects with SLE [1]; week 24, all treated combined vs placebo, p<0.0001): significant reduction | CD19+ B cells and naïve B cells (CD20+/CD27−) (subjects with SLE [1]; week 52): significantly reduced | memory cell populations (subjects with SLE [1]; week 52): preserved | median percent change in CD20+ B cells (reduction) (subjects with SLE [1]; [8]): 54% | median percent change in plasmacytoid B cells (CD20+/CD138+) (reduction) (subjects with SLE [1]; [8]): 62% | reduction of anti-dsDNA Ab (subjects with SLE [1]; week 52, baseline positive, p<0.002, placebo 9%): 30% | median percent change in activated B cells (CD20+/CD69+) (reduction) (subjects with SLE [1]; week 52, p<0.002): 70% | median reduction of serum IgE (subjects with SLE [1]; week 52, placebo 0%): 34% | median reduction of serum IgA (subjects with SLE [1]; week 52, placebo 3%): 14% | median reduction of serum IgM (subjects with SLE [1]; week 52, placebo 5%): 29% | subjects with significant anti-dsDNA reduction (≧50% reduction or become negative) (subjects with SLE [1]; week 52, placebo 17%): 30% | median reduction of serum IgG (subjects with SLE [1]; week 52, placebo up 3%): 10% | increase of plasma cells (CD20−/CD138+) over baseline (subjects with SLE [1]; week 52, placebo/standard of care 30.6%, p=0.02): 72.5% | additional anti-dsDNA+ subjects converted to negative (subjects with SLE [1]; week 76): 3 subjects | median reduction of serum IgA (subjects with SLE [1]; week 76): 15% | median reduction of serum IgE (subjects with SLE [1]; week 76): 35% | median reduction of serum IgG (subjects with SLE [1]; week 76): 12% | median reduction of serum IgM (subjects with SLE [1]; week 76): 34% | reduction of anti-dsDNA Ab (subjects with SLE [1]; week 76): 28% | median percent change in CD20+ B cells (reduction) (subjects with SLE [1]; [9]): 61% | median percent change in activated B cells (CD20+/CD69+) (reduction) (subjects with SLE [1]; [9]): 84% | median percent change in plasmacytoid B cells (CD20+/CD138+) (reduction) (subjects with SLE [1]; [9]): 60% | median reduction of serum IgA (subjects with SLE [1]; week 104): 14% | median reduction of serum IgE (subjects with SLE [1]; week 104): 37% | median reduction of serum IgG (subjects with SLE [1]; week 104): 10% | median reduction of serum IgM (subjects with SLE [1]; week 104): 35% | median reduction of serum IgA (subjects with SLE [1]; week 128): 14% | median reduction of serum IgE (subjects with SLE [1]; week 128): 41% | median reduction of serum IgG (subjects with SLE [1]; week 128): 9% | median reduction of serum IgM (subjects with SLE [1]; week 128): 40% | subjects with significant anti-dsDNA reduction (≧50% reduction or become negative) (subjects with SLE [1]; week 128): 47% | ACR20 response (subjects with RA [2]; 1 mg/kg treatment group vs placebo, 24 weeks, p=0.0097): statistically superior | dose-response relationship for efficacy, safety, biomarker effects (subjects with RA [2]; 1, 4, 10 mg/kg): not apparent | ACR20 response (subjects with RA [2]; Week 48 (extension period)): approximately 40% | ACR20 response (subjects with RA [2]; all active treatment groups combined vs placebo, 24 weeks, p=0.0213): statistically superior | symptoms associated with rheumatoid arthritis, by subgroup (subjects with RA [2]; patients with DAS28 >5.1, no previous anti-TNF therapy, and/or rheumatoid factor, IV days 0, 14, 28 then every four weeks until week 24): more likely to ameliorate symptoms associated with rheumatoid arthritis | ACR20 responses in subgroups (subjects with RA [2]; subjects with autoantibody positive disease (RF or anti-CCP) or positive for CRP at baseline): improved ACR20 responses | tolerability (subjects with RA [3]; 1, 4, 10 mg/kg, 24 weeks): well tolerated at all doses | tolerability (subjects with RA [3]; [10]): well tolerated | Effects on biomarkers (subjects with RA [4]; [10]): increased or were sustained | CD20+ B-cells (subjects with RA [4]; human, in vivo): statistically significant reductions | RF (rheumatoid factor) (subjects with RA [4]; human, in vivo): statistically significant reductions | activated B-cells (subjects with RA [4]; human, in vivo): statistically significant reductions | memory cells (subjects with RA [4]; human, in vivo): increased within first month of treatment and slowly declined with continued treatment | naïve B-cells (subjects with RA [4]; human, in vivo): statistically significant reductions | safety, including adverse events (AE), AE severity, infections or lab toxicity (subjects with SLE [5]): No clinically significant differences | Immunogenicity to belimumab, number of subjects (subjects with SLE [6]; 1 mg/kg): 1 subject | Infusion reactions (subjects with SLE [6]; human, in vivo): rare, with only 1 severe event reported | tolerability (subjects with SLE [6]; human, in vivo): well tolerated | subjects with pleurisy (subjects with SLE [6]; placebo 8%, p<0.05): 3.3%
